A melting point compilation (Tetko et al.; mined from patent text by program, amines drawn as free bases though some values may be those of a salt)

Compound | melting point [°C]
CCCN(C(=O)COc1c(C)cccc1C)C1CCc2c(ccc(O)c2O)C1 (stereo not drawn) | 153 to 155
N#CCCOc1cccc(O)c1C=O | 84 to 86
CCCCc1cn(CCCC)c(=O)n1Cc1ccc(-c2ccccc2-c2nnn[nH]2)nc1 | 170 to 171
COC(=O)c1cc(C)c(-c2cccc(O)c2C)c(C)c1 | 149
CSc1cc2[nH]ccc2cc1F | 51
CC(Sc1nc2ccc(N)cc2s1)C(=O)NCCN(C)Cc1ccc(Cl)c(Cl)c1 (stereo not drawn) | 97 to 100
CCC1(CC)CN(c2ncc(C(=O)N(C)c3cccc(C(F)(F)F)c3)c(N)n2)C(=O)N1 | 185 to 187
Cc1cc(S)n2nc(C(=O)O)nc2n1 | 215 to 217
CC(C)CCCC(=S)SCC(C)C | 43 to 44
C=C(C)Cn1c(N)c(N)c(=O)n(C)c1=O | 152 to 153
CCOC(=O)CC(=O)c1cc(Cl)c(F)c(Cl)c1F | 133
Cc1cc(Br)ccc1NC(=O)CC(=O)O | 163 to 165
O=S(=O)(Cl)c1cccc(-c2cccc(-c3nc(-c4ccc(C(F)(F)F)cc4)cc(C(F)(F)F)n3)c2)c1 | 176
CN(C)C(=N[N+](=O)[O-])N(Cc1cnc(Cl)s1)S(C)(=O)=O | 82 to 86
COC(=O)c1cc(C=O)ccc1OCc1nc(-c2ccco2)oc1C | 121 to 122
CC(Cc1ccc(OCc2ccccc2)cc1)NCC(O)c1cccc(Cl)c1 (stereo not drawn) | 95 to 99
O=C(NCCn1cncn1)c1sc2ccccc2c1Cl | 151 to 152
COC(=O)N=C(N)SC | 72 to 77
CC(C)Oc1ccnc2[nH]cc(-c3ccnc(N)n3)c12 | > 210
Nc1ccc(F)c(Cl)c1F | 58

Compound | melting point [°C]
CS(=O)(=O)c1cc(C(=O)O)c(N)cc1Cl | 284 to 286
Clc1cncc(Cl)c1C1=NC(c2ccc(Br)cc2)CO1 (stereo not drawn) | 102 to 103
O=C1c2ccccc2OCN1CCO | 59 to 61
Cc1cccnc1C(=O)NC(C)(C)C | 56 to 58
O=c1[nH][nH]c(C(F)(F)F)c1Cc1ccc2ccccc2c1 | 165 to 167
OC(Cn1cncn1)(c1ccccc1)C1OC1c1ccccc1Cl (stereo not drawn) | 180 to 182
Clc1ccc(C2c3ccc(Cl)cc3-c3ncncc32)cc1 (stereo not drawn) | 158 to 163
CCCCCCCCCCCCCCC(=O)C(=O)N[C@@H](CCCC)C(=O)NCC(=O)OCC | 63 to 65
CC(/C=C/C=C(\C)C1=Cc2cc(C(C)(C)C)cc(C)c2OC1)=C\C(=O)O | 227 to 228
Cc1nccn1-c1cccc(Nc2ccc(-c3ccoc3)cc2N)c1 | 98 to 99
CC1CC2C3CC(F)C4=CC(=O)C=CC4(C)C34OC4CC2(C)C1(O)C(=O)CO (stereo not drawn) | 241 to 242
CC(C)(C)P(c1cccc2ccccc12)C(C)(C)C | 95 to 97
COC(=O)c1cc(C=O)ccc1C | 60 to 61
CCN(CC)C(=O)c1nc(-c2c(Cl)cc(C(F)(F)F)cc2Cl)[nH]c1C#N | 195 to 197
COCCOc1nc(SC)c(C#N)c(N2CCc3ccccc3CC2)n1 | 108 to 111
CC(=O)N=C(CCSCc1csc(NC(=N)N)n1)NC(C)=O | 180 to 181
Cc1cccc(-c2n[nH]cc2-c2ccc(F)c(-c3c[nH]c(CC(C)(C)O)n3)c2)n1 | 136 to 140
O=c1[nH]c2c(F)cccc2o1 | 131 to 133
CCn1cc(C(=O)O)c(=O)c2cc(F)c(-c3ccncc3)nc21 | 286 to 288
COC(=O)C1CC(=O)C(CC(=O)O)C1C[N+](=O)[O-] (single isomer, unassigned; (-)) | 111 to 112

Compound | melting point [°C]
COc1cc2c(c3c1OC(C)(C)C3)C(c1cccc(Br)c1)=NCC2(C)C | 127 to 129
C#CCn1nc(-c2ccc(Cl)cc2)n(CC)c1=O | 115 to 119
FC(F)(F)c1ccccc1NCC1=NNCCN1 | 97 to 98
COc1ccc(F)c(F)c1C(=O)c1cnc(NC2CCN(S(N)(=O)=O)CC2)nc1N | 217 to 218
CC(=O)Sc1c(F)c(F)c(C=O)c(F)c1F | 86 to 87
CCCCCOc1ccc(-c2ncc(C#N)cn2)cc1 | 98 to 98.1
COc1cc(C(=O)C(C)C)cc([N+](=O)[O-])c1O | 85 to 87
COc1cc(/C(C#N)=C/c2ccc(C)c([N+](=O)[O-])c2)cc(OC)c1OC | 162 to 163
Cc1cc(Cn2cncc2C)cc2c1Cc1c(-c3ccsc3)n[nH]c1-2 | 260 to 264
CCOC(=O)CON1C(=O)C(=O)N(c2ccccc2SC)C1=S | 112 to 114
O=c1[nH]c(=O)n(CCCBr)c2ccccc12 | 159 to 170
NNc1nc(Cl)nc2cc3c(cc12)OCO3 | > 280
Cc1nnc2ccc(-c3cccc(NC(C)C)c3)nn12 | 157 to 159
Cc1cnc2c(c1)C(O)C(Cc1ccc(C#N)cc1)CC2 (stereo not drawn) | 174 to 175
COc1c(C)cc(-c2cncc(OC3SCC(O)C(O)C3O)c2)cc1C (stereo not drawn) | 173
CC(=O)N1CCN=C1Nc1cc(C(C)C)nn1C(C)C | 139 to 140
Cc1cn2ccccc2c1[N+](=O)[O-] | 137 to 139
Cc1cccc(C)c1N1CCN(CCC2CN(C)C(=O)O2)CC1 (stereo not drawn) | 107 to 108
CCOC(=O)c1cn(-c2nonc2C)c2cc(F)c(F)cc2c1=O | 178 to 180
CCn1c(=O)c2c(nc(/C=C/c3ccc(OC)c(OC)c3)n2C)n(CC)c1=O | 190 to 191

More lines, now with the values ahead:

melting point [°C] | Compound
176 to 178 | O=c1[nH]c(C2CCCN(Cc3ccccc3)C2)cc2ccccc12 (stereo not drawn)
212 to 216 | CNC(=O)c1ccc(C=CC(=O)NCC(=O)N(C)c2ccc(Cl)c(CBr)c2Cl)cc1
116 to 117 | O=S(=O)(CCCCl)Nc1cccc(OCc2ccc3ccccc3n2)c1
241 to 243 | O/N=C1\CCCc2c1c1ccccc1n2-c1ccc(OCc2ccccc2)cc1
75 | COC(=O)CCCc1cc2nc(Cl)ccc2n1S(=O)(=O)c1ccc(C(C)C)cc1
165 | COC(=O)c1scc(-c2ccccc2)c1-c1ccc(S(=O)(=O)COC(C)=O)c(F)c1
120 | O=C(O)CN(Cc1cccc(Cn2cc(C3c4ccccc4C=Cc4ccccc43)c(=S)[nH]c2=O)c1)C(=O)OCc1ccccc1
92 | CCCCC(CC)CNCCOc1ccc2ccccc2c1 (stereo not drawn)
56 to 65 | CC(C)C[C@@H](C(=O)N1CCN(C(c2ccc(F)cc2)c2ccc(F)cc2)CC1)N(C)C1CCOCC1
182 to 184 | C=C(c1ccccc1)c1ccc(NC(=S)NC(=O)OC)c(NC(=S)NC(=O)OC)c1
253 to 254 | O=C1c2ccc(C(F)(F)F)cc2C(=O)c2cc3ccccc3cc21
183 | COc1cc(C(=O)c2ncc3ccccn23)ccc1[N+](=O)[O-]
98 to 100 | CCCCC(=O)c1c(-c2ccc3c(Br)c(OCC#N)ccc3c2)oc2ccccc12
179 to 181 | O=S(=O)(c1ccc(Cl)cc1)N1CCC2(C=Cc3ccccc32)CC1
135 to 138 | CC1(C)CC(=O)c2c(Nc3ccccc3)cn(-c3ccccn3)c2C1
150 | CS(=O)(=O)N1CCN([C@@H](CNC(=O)c2ccc(OCc3ccccc3)cc2)C(=O)NO)CC1
256 to 259 | O=C(Nc1cc(-c2ccc(-c3ccccc3)cc2)on1)c1c(Cl)cccc1Cl
101 to 102 | COC(=O)C(=NOCF)c1ccccc1COc1ccccc1C
145 to 147 | CS(=O)(=O)Nc1ccc(CC(=O)O)cc1
290 | O=C(Nc1nccs1)c1cn(-c2ccccc2)c2ccccc2c1=O
111 to 112 | CCOC(=O)CCc1cn(Cc2cccc(C(=O)Nc3cccnc3)c2)nc1-c1ccccc1
219 | COC(=O)C1=CCC2=Nc3ccccc3C2=C1C(=O)OC

melting point [°C] | Compound
94 to 96 | CC(C)[C@H](CCC(=O)OCc1ccccc1)NC(=O)OC(C)(C)C
205 to 207 | CS(=O)(=O)c1ccc(-c2cnn(CC(O)c3ccccc3)c(=O)c2-c2ccc(F)cc2)cc1 (stereo not drawn)
217 to 218 | CCCCNc1cc(C#N)cc(S(N)(=O)=O)c1Oc1ccccc1
114 to 116 | CCN(CC)C(=O)c1ccc2ccccc2c1-c1ccc(OC)cc1
85 to 93 | COc1ccccc1N1CCN(CCCN2C(=O)c3ccccc3C2=O)CC1
109 to 110 | O=C(O)[C@H](Cc1cccc(OC(F)(F)C(F)F)c1)[C@@H](O)c1ccc(Oc2ccccc2)cc1 (racemic)
44 to 45 | COC(=O)CCCCCCCNC(=O)C(CSC(C)=O)Cc1ccccc1 (stereo not drawn)
245 to 250 | O=C(Nc1ccc(I)cc1)c1ccncc1
55 to 56.5 | CC(=CCO)CS(=O)(=O)c1ccccc1
71.5 to 72.1 | Nc1nc2ccccc2c2c1nc(CCCOc1ccccc1)n2CCCCNC(=O)N1CCOCC1
243 to 244 | NC(=Nc1ccc2[nH]c3ccccc3c2c1)c1cccs1
148 to 150 | COc1ccc(C(=O)Nc2ccccc2Nc2ccccc2)cc1
224 to 226 | CCc1ccc2oc(C(=O)Nc3ccc(-c4ccc(S(=O)(=O)NC(C(=O)O)C(C)C)cc4)cc3)c(C)c2c1OCc1ccccc1 (stereo not drawn)
116 to 117 | CCC(Oc1ccc(CCC(=O)c2ccc(-c3ccc(C(F)(F)F)cc3)s2)cc1)C(=O)O (stereo not drawn)
121 | CC(c1ccc(COCc2ccccc2)o1)N(O)C(N)=O (stereo not drawn)
171 to 172 | COc1ccc(-c2cc(NC(=O)C3(C)Cc4ccccc4C3)n[nH]2)cc1
> 300 | Nc1nc2ccccc2c2c1nc(CN1CCOCC1)n2Cc1ccccc1
225 to 235 | CS(=O)(=O)NC(=O)Nc1ccc(Cl)cc1
200 to 201 | CCOC(=O)c1ccc(-c2ccc(N(c3ccc(-c4ccccc4)cc3)c3ccc(-c4ccc(C(=O)OCC)cc4)cc3)cc2)cc1
181 to 185 | CC1=NC(NC(=O)Nc2cccc(Cl)c2)C(=O)N(CC(=O)N2CC3CCC(CC3)C2)c2c(C)cccc21 (stereo not drawn)
74 to 77 | CCOC(=O)C1=C(C)NC(C)=C(C(=O)OCCN2CCN(C(c3ccc(C)cc3)c3ccc(C)cc3)CC2)C1c1cccc(C(F)(F)F)c1 (stereo not drawn)
